Assays:
tomato = assay: Tomato leaf transpiration, greenhouse, porometer (Example 5); format: in vivo, Tomato (variety: Rutgers); conditions: for Tomato leaf transpiration (in words): PBI-429 25-200 ppm, trinexapac-ethyl 250-2000 ppm, alone or combined, 3-14 days after treatment
Text: The effect of ABA analog (PBI-429) and trinexapac-ethyl combinations on transpiration and growth inhibition of dicotyledonous (tomato) was also examined in the greenhouse condition. Tomato (variety: Rutgers) seeds were sown in 18-cell flat filled with Promix PGX (available from Premier Horticulture Inc. Quakertown, Pa.) and grown for 3 weeks to allow for germination and initial growth. Plants were then transplanted into pots (18 cm in diameter and 18 cm in height), filled with Promix BX (available from Premier Horticulture Inc. Quakertown, Pa.), and grown for one week before the chemical treatment. Plants received daily irrigation and weekly fertilizer (1 g/L all purpose fertilizer 20-20-20, available from The Scotts Company, Marysville, Ohio). During the chemical treatment, a 24 mL (4 mL/plant) solution was foliar sprayed on the tomato canopy. Leaf transpiration rates were measured using a LI-1600 Steady State Porometer (LI-Cor, Lincoln, Nebr.) at 3, 5, 7, 10, and 14 days after treatment. The leaf transpiration rate was normalized to the percentage of control plant to minimize the experimental errors caused by environmental factors. Plant height was measured at 0, 3, 5, 7, 10 and 14 days after treatment. The growth rate was calculated based on the changes of plant height in certain intervals. The plants were harvested and the leaf number was counted at 14 days after treatment.

creeping bentgrass [1] = assay: Golf course green field study on creeping bentgrass with PBI-702: turfgrass height, soil moisture, turf quality (Example 3); format: in vivo, Penncross creeping bentgrass; conditions: for Soil moisture / Turfgrass height / Turf quality: 25 ppm trinexapac-ethyl alone; for Turf quality: visual 0-9 scale, 9 best
Experimental: (§1) Field studies were conducted at the nursery green or the practice green at Countryside golf course (Mundelein, Ill.). Both greens were sand based and growing Penncross creeping bentgrass. Grass was managed with typical Illinois golf course management practices.
Chemical solutions were prepared with distilled water. Tween 20 (0.05% v/v) was used as the surfactant when necessary. Trinexapac-ethyl (commercial product Primo Maxx, 11.3% active ingredient) was purchased from Syngenta Crop Protection Inc. (Greensboro, N.C.). ABA analogs, 8′ acetylene-ABA, acid (PBI-524), 8′ acetylene-ABA, ester (PBI-429), 8′ cyclopropane ester (PBI-696), or Tetralone, first carbon tail acetylene, ester (PBI-702), were obtained from Plant Biotechnology Institute, National Research Council of Canada (Saskatoon, Saskatchewan, Canada).
Chemical solutions were foliar applied to the turfgrass canopy at the rate of 4-gallons/1000 square foot (or 0.163 L/m^−2) immediately after finishing the preparation of solutions. After treatment, turfgrasses were arranged in a randomized complete block experimental design. Turfgrass quality, turfgrass height or clip fresh weight was measured on assigned dates. Turfgrass quality was visually rated on a 0-9 scale based on the color, uniformity, and density of the grass with 0 as the worst and 9 as the best. Turfgrass height was measured as the distance between canopy surface and soil. Clippings were collected form each plot; all plots were cut to a uniform height.
All experiments were randomized complete block experimental design. Data were analyzed by analysis of variance. Duncan's new multiple range tests at α=0.05 were used for mean separations.
Trinexapac-ethyl (25 ppm) or PBI-702 (50 ppm) were one time foliar applied alone or in combination to creeping bentgrass in the golf course green to investigate their effect on turfgrass quality, growth inhibition and soil moisture.

creeping bentgrass [2] = assay: Golf course green field study on creeping bentgrass with PBI-696: growth rate, turfgrass quality (Example 4); format: in vivo, Penncross creeping bentgrass; conditions: 4 days after treatment, trinexapac-ethyl (25 ppm) alone
Experimental: as §1
Chemical solutions were prepared with distilled water. Tween 20 (0.05% v/v) was used as the surfactant when necessary. Trinexapac-ethyl (commercial product Primo Maxx, 11.3% active ingredient) was purchased from Syngenta Crop Protection Inc. (Greensboro, N.C.). […]
Chemical solutions were foliar applied to the turfgrass canopy at the rate of 4-gallons/1000 square foot (or 0.163 L/m^−2) immediately after finishing the preparation of solutions. […] Turfgrass quality, turfgrass height or clip fresh weight was measured on assigned dates. […] Turfgrass height was measured as the distance between canopy surface and soil. […]
All experiments were randomized complete block experimental design. Data were analyzed by analysis of variance. […]
Trinexapac-ethyl (25 ppm) and PBI-696 (5 or 50 ppm) were one time foliar applied in combination to creeping bentgrass in the golf course green. Turfgrass quality and growth rate were measured 4 days after treatment.

C#CC1(C)CC(=O)C=C(C)C1(O)/C=C/C(C)=C\C(=O)OC (stereo not drawn) [PBI-429, 8′ acetylene-ABA, ester]
Transpiration (tomato; 25 ppm PBI-429, 3 days after treatment): 53 % of control
Transpiration (tomato; 25 ppm PBI-429, 5 days after treatment): 61 % of control
Transpiration (tomato; 25 ppm PBI-429, 7 days after treatment): 75 % of control
Transpiration (tomato; 25 ppm PBI-429, 10 days after treatment): 80 % of control
Transpiration (tomato; 25 ppm PBI-429, 14 days after treatment): 103 % of control
Transpiration (tomato; 50 ppm PBI-429, 3 days after treatment): 36 % of control
Transpiration (tomato; 50 ppm PBI-429, 5 days after treatment): 32 % of control
Transpiration (tomato; 50 ppm PBI-429, 7 days after treatment): 42 % of control
Transpiration (tomato; 50 ppm PBI-429, 10 days after treatment): 69 % of control
Transpiration (tomato; 50 ppm PBI-429, 14 days after treatment): 99 % of control
Transpiration (tomato; 100 ppm PBI-429, 3 days after treatment): 34 % of control
Transpiration (tomato; 100 ppm PBI-429, 5 days after treatment): 29 % of control
Transpiration (tomato; 100 ppm PBI-429, 7 days after treatment): 38 % of control
Transpiration (tomato; 100 ppm PBI-429, 10 days after treatment): 55 % of control
Transpiration (tomato; 100 ppm PBI-429, 14 days after treatment): 98 % of control
Transpiration (tomato; 200 ppm PBI-429, 3 days after treatment): 26 % of control
Transpiration (tomato; 200 ppm PBI-429, 5 days after treatment): 24 % of control
Transpiration (tomato; 200 ppm PBI-429, 7 days after treatment): 28 % of control
Transpiration (tomato; 200 ppm PBI-429, 10 days after treatment): 34 % of control
Transpiration (tomato; 200 ppm PBI-429, 14 days after treatment): 71 % of control
Tomato leaf transpiration (in words) (tomato): inhibited tomato leaf transpiration

CCOC(=O)C1CC(=O)C(=C(O)C2CC2)C(=O)C1 (stereo not drawn) [trinexapac-ethyl, reference compound]
Soil moisture (creeping bentgrass [1]; 4 days after treatment): 11.2%
Turfgrass height (creeping bentgrass [1]; 4 days after treatment): 7.3 mm
Reducing growth or maintaining soil moisture (in words) (creeping bentgrass [1]; 4 days after treatment, trinexapac-ethyl 25 ppm, PBI-702 50 ppm, alone or combined): ineffective at reducing growth or maintaining soil moisture
Soil moisture (creeping bentgrass [1]; 7 days after treatment): 12.7%
Turfgrass height (creeping bentgrass [1]; 7 days after treatment): 6.5 mm
Turf quality (creeping bentgrass [1]; 7 days after treatment): 7.3
Reducing growth (in words) (creeping bentgrass [1]; 7 days after treatment, trinexapac-ethyl 25 ppm, PBI-702 50 ppm, alone or combined): effective at reducing growth
Soil moisture (creeping bentgrass [1]; 38 days after treatment): 12.4%
Turfgrass height (creeping bentgrass [1]; 38 days after treatment): 6.0 mm
Turf quality (creeping bentgrass [1]; 38 days after treatment): 7.6
Growth rate (creeping bentgrass [2]): 549 mg dry weight m^−2 day^−1
Turfgrass quality (creeping bentgrass [2]; visual 0-9 scale, 9 best): 8.0
Transpiration (tomato; 250 ppm trinexapac-ethyl, 3 days after treatment): 95 % of control
Transpiration (tomato; 250 ppm trinexapac-ethyl, 5 days after treatment): 95 % of control
Transpiration (tomato; 250 ppm trinexapac-ethyl, 7 days after treatment): 94 % of control
Transpiration (tomato; 250 ppm trinexapac-ethyl, 10 days after treatment): 94 % of control
Transpiration (tomato; 250 ppm trinexapac-ethyl, 14 days after treatment): 100 % of control
Transpiration (tomato; 500 ppm trinexapac-ethyl, 3 days after treatment): 94 % of control
Transpiration (tomato; 500 ppm trinexapac-ethyl, 5 days after treatment): 101 % of control
Transpiration (tomato; 500 ppm trinexapac-ethyl, 7 days after treatment): 94 % of control
Transpiration (tomato; 500 ppm trinexapac-ethyl, 10 days after treatment): 97 % of control
Transpiration (tomato; 500 ppm trinexapac-ethyl, 14 days after treatment): 97 % of control
Transpiration (tomato; 1000 ppm trinexapac-ethyl, 3 days after treatment): 100 % of control
Transpiration (tomato; 1000 ppm trinexapac-ethyl, 5 days after treatment): 95 % of control
Transpiration (tomato; 1000 ppm trinexapac-ethyl, 7 days after treatment): 94 % of control
Transpiration (tomato; 1000 ppm trinexapac-ethyl, 10 days after treatment): 101 % of control
Transpiration (tomato; 1000 ppm trinexapac-ethyl, 14 days after treatment): 100 % of control
Transpiration (tomato; 2000 ppm trinexapac-ethyl, 3 days after treatment): 94 % of control
Transpiration (tomato; 2000 ppm trinexapac-ethyl, 5 days after treatment): 96 % of control
Transpiration (tomato; 2000 ppm trinexapac-ethyl, 7 days after treatment): 93 % of control
Transpiration (tomato; 2000 ppm trinexapac-ethyl, 10 days after treatment): 91 % of control
Transpiration (tomato; 2000 ppm trinexapac-ethyl, 14 days after treatment): 96 % of control
Tomato leaf transpiration (in words) (tomato): did not significantly inhibited tomato leaf transpiration
